{
  "source": "patent US12612360B2",
  "about": "(Sanofi, priority 2020, dated 2026)",
  "molecular_target": "T1, ERα (Homo sapiens, UniProt P03372)",
  "T1 construct": "host or cells: MCF7",
  "T1 sequence (P03372 1-595)": "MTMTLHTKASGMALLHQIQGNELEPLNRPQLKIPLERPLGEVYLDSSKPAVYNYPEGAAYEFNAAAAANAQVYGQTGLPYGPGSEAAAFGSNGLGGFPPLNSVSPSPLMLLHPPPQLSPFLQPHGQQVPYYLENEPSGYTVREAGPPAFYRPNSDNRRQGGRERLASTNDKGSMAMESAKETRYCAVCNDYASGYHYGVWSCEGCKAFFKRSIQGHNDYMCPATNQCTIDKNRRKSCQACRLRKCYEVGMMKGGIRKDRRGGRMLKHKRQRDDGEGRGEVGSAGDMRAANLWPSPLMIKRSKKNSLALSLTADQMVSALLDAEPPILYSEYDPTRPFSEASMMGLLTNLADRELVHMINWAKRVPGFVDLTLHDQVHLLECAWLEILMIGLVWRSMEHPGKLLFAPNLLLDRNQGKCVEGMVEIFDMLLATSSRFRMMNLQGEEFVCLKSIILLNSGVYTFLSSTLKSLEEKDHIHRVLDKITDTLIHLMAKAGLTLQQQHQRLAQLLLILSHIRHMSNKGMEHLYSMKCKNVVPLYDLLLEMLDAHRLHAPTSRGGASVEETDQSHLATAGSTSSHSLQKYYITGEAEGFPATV",
  "assay": "Estrogen receptor degradation activity: breast cancer cell ERα in cell western assay (MCF7 cells)",
  "format": "cell-based",
  "details": "for % Degradation At 0.3 μM: 4 hours, relative to fulvestrant 0.1 μM positive control; for DC50: 4 hours post compound addition, concentration which degrades 50% of the estrogen receptor, read-out: Degradation IC50",
  "in_short": "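In-cell western readout: ERα immunofluorescence (Alexa 488) normalised to DNA signal (Syto-64) after formalin fixation. Compounds dosed for 4 h on MCF7 cells in stripped-serum, phenol-red-free medium over nine 1:5 steps, 0.3 to […] final; fulvestrant 0.1 μM control. IC50 in nM for 50% ERα degradation.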",
  "data": [
    {"smiles": "CC1CCC(C2=C(c3ncc(C=C4CN(CCCF)C4)cc3F)c3ccc(C(=O)O)cc3CCC2)CC1", "note": "(mixture of isomers) [Example 188, 9-(3-fluoro-5-((1-(3-fluoropropyl)azetidin-3-ylidene)methyl)pyridin-2-yl)-8-(4-methylcyclohexyl)-6,7-dihydro-5H-benzo[7]annulene-3-carboxylic acid]", "values": [
      {"measurement": "% Degradation At 0.3 μM", "value": 89, "unit": "%"},
      {"measurement": "DC50", "value": 1800, "unit": "pM"}
    ]},
    {"smiles": "Cc1ccc(C2=C(c3ccc(C=C4CN(CCCF)C4)cc3)c3ccc(C(=O)O)cc3CCC2)cc1C(F)(F)F", "note": "[Example 144, 9-(4-((1-(3-fluoropropyl)azetidin-3-ylidene)methyl)phenyl)-8-(4-methyl-3-(trifluoromethyl)phenyl)-6,7-dihydro-5H-benzo[7]annulene-3-carboxylic acid]", "values": [
      {"measurement": "% Degradation At 0.3 μM", "value": 90, "unit": "%"},
      {"measurement": "DC50", "value": 400, "unit": "pM"}
    ]},
    {"smiles": "O=C(O)c1ccc2c(c1)CCCC(c1cccc3c1CCC3)=C2c1ccc(C=C2CN(CCC(F)F)C2)cc1", "note": "[Example 163, 9-(4-((1-(3,3-difluoropropyl)azetidin-3-ylidene)methyl)phenyl)-8-(2,3-dihydro-1H-inden-4-yl)-6,7-dihydro-5H-benzo[7]annulene-3-carboxylic acid]", "values": [
      {"measurement": "% Degradation At 0.3 μM", "value": 98, "unit": "%"},
      {"measurement": "DC50", "value": 800, "unit": "pM"}
    ]},
    {"smiles": "O=C(O)c1ccc2c(c1)CCCC(c1cccc3c1CCC3)=C2c1ccc(C=C2CN(CCCF)C2)cc1", "note": "[Example 10, 8-(2,3-dihydro-1H-inden-4-yl)-9-(4-((1-(3-fluoropropyl)azetidin-3-ylidene)methyl)phenyl)-6,7-dihydro-5H-benzo[7]annulene-3-carboxylic acid]", "values": [
      {"measurement": "% Degradation At 0.3 μM", "value": 90, "unit": "%"},
      {"measurement": "DC50", "value": 200, "unit": "pM"}
    ]},
    {"smiles": "Cl.O=C(O)c1ccc2c(c1)SCCC(c1ccc(Cl)cc1Cl)=C2c1ccc(C=C2CN(CCCF)C2)cc1", "note": "[Example 115, 4-(2,4-dichlorophenyl)-5-[4-[[1-(3-fluoropropyl)azetidin-3-ylidene]methyl]phenyl]-2,3-dihydro-1-benzothiepine-8-carboxylic acid; hydrochloride]", "values": [
      {"measurement": "% Degradation At 0.3 μM", "value": 100, "unit": "%"},
      {"measurement": "DC50", "value": 120000, "unit": "pM"}
    ]},
    {"smiles": "O=C(O)c1ccc2c(c1)CCCC(c1ccc(Cl)cc1Cl)=C2c1ncc(C=C2CN(CCCF)C2)cc1F", "note": "[Example 158, 8-(2,4-Dichlorophenyl)-9-(3-fluoro-5-((1-(3-fluoropropyl)azetidin-3-ylidene)methyl)pyridin-2-yl)-6,7-dihydro-5H-benzo[7]annulene-3-carboxylic acid]", "values": [
      {"measurement": "% Degradation At 0.3 μM", "value": 94, "unit": "%"},
      {"measurement": "DC50", "value": 400, "unit": "pM"}
    ]},
    {"smiles": "Cc1cc(F)ccc1C1=C(c2cc(F)c(C=C3CN(CCCF)C3)cc2C)c2ccc(C(=O)O)cc2CCC1.Cl", "note": "[Example 61, 8-(4-fluoro-2-methylphenyl)-9-(5-fluoro-4-((1-(3-fluoropropyl)azetidin-3-ylidene)methyl)-2-methylphenyl)-6,7-dihydro-5H-benzo[7]annulene-3-carboxylic acid hydrochloride]", "values": [
      {"measurement": "% Degradation At 0.3 μM", "value": 93, "unit": "%"},
      {"measurement": "DC50", "value": 800, "unit": "pM"}
    ]},
    {"smiles": "Cc1c(Cl)ccc(C2=C(c3ccc(C=C4CN(CCCF)C4)cc3)c3ccc(C(=O)O)cc3CCC2)c1C", "note": "[Example 82, 8-(4-chloro-2,3-dimethylphenyl)-9-(4-((1-(3-fluoropropyl)azetidin-3-ylidene)methyl)phenyl)-6,7-dihydro-5H-benzo[7]annulene-3-carboxylic acid]", "values": [
      {"measurement": "% Degradation At 0.3 μM", "value": 90, "unit": "%"},
      {"measurement": "DC50", "value": 500, "unit": "pM"}
    ]},
    {"smiles": "Cc1cc(F)ccc1C1=C(c2ccc(C=C3CN(CCCF)C3)cc2)c2ccc(C(=O)O)cc2CCC1", "note": "[Example 98, 8-(4-fluoro-2-methylphenyl)-9-(4-((1-(3-fluoropropyl)azetidin-3-ylidene)methyl)phenyl)-6,7-dihydro-5H-benzo[7]annulene-3-carboxylic acid]", "values": [
      {"measurement": "% Degradation At 0.3 μM", "value": 96, "unit": "%"},
      {"measurement": "DC50", "value": 300, "unit": "pM"}
    ]},
    {"smiles": "Cc1cccc(C2=C(c3ccc(C=C4CN(CCCF)C4)cc3)c3ccc(C(=O)O)cc3CCC2)c1Cl", "note": "[Example 76, 8-(2-chloro-3-methylphenyl)-9-(4-((1-(3-fluoropropyl)azetidin-3-ylidene)methyl)phenyl)-6,7-dihydro-5H-benzo[7]annulene-3-carboxylic acid]", "values": [
      {"measurement": "% Degradation At 0.3 μM", "value": 94, "unit": "%"},
      {"measurement": "DC50", "value": 500, "unit": "pM"}
    ]},
    {"smiles": "O=C(O)c1ccc2c(c1)CCCC(CC1CCC1)=C2c1ccc(C=C2CN(CCCF)C2)cc1", "note": "[Example 169, 8-(cyclobutylmethyl)-9-(4-((1-(3-fluoropropyl)azetidin-3-ylidene)methyl)phenyl)-6,7-dihydro-5H-benzo[7]annulene-3-carboxylic acid]", "values": [
      {"measurement": "% Degradation At 0.3 μM", "value": 90, "unit": "%"},
      {"measurement": "DC50", "value": 300, "unit": "pM"}
    ]},
    {"smiles": "Cc1cc(F)ccc1C1=C(c2ccc(C=C3CN(CCCF)C3)c(C(F)(F)F)c2)c2ccc(C(=O)O)cc2CCC1", "note": "[Example 157, 8-(4-fluoro-2-methylphenyl)-9-(4-((1-(3-fluoropropyl)azetidin-3-ylidene)methyl)-3-(trifluoromethyl)phenyl)-6,7-dihydro-5H-benzo[7]annulene-3-carboxylic acid]", "values": [
      {"measurement": "% Degradation At 0.3 μM", "value": 88, "unit": "%"},
      {"measurement": "DC50", "value": 3100, "unit": "pM"}
    ]},
    {"smiles": "Cc1cc(F)ccc1C1=C(c2ccc(C=C3CN(CCCF)C3)c(C)c2F)c2ccc(C(=O)O)cc2CCC1", "note": "[Example 67, 8-(4-fluoro-2-methylphenyl)-9-(2-fluoro-4-((1-(3-fluoropropyl)azetidin-3-ylidene)methyl)-3-methylphenyl)-6,7-dihydro-5H-benzo[7]annulene-3-carboxylic acid]", "values": [
      {"measurement": "% Degradation At 0.3 μM", "value": 99, "unit": "%"},
      {"measurement": "DC50", "value": 500, "unit": "pM"}
    ]},
    {"smiles": "O=C(O)c1ccc2c(c1)CCCC(c1cc(F)cc3c1CCC3)=C2c1ccc(C=C2CN(CCC(F)F)C2)cc1", "note": "[Example 162, 9-(4-((1-(3,3-difluoropropyl)azetidin-3-ylidene)methyl)phenyl)-8-(6-fluoro-2,3-dihydro-1H-inden-4-yl)-6,7-dihydro-5H-benzo[7]annulene-3-carboxylic acid]", "values": [
      {"measurement": "% Degradation At 0.3 μM", "value": 93, "unit": "%"},
      {"measurement": "DC50", "value": 1900, "unit": "pM"}
    ]},
    {"smiles": "Cc1c(C2=C(c3ccc(C=C4CN(CCCF)C4)cc3)c3ccc(C(=O)O)cc3CCC2)cccc1C(F)(F)F", "note": "[Example 14]", "values": [
      {"measurement": "% Degradation At 0.3 μM", "value": 88, "unit": "%"},
      {"measurement": "DC50", "value": 200, "unit": "pM"}
    ]},
    {"smiles": "Oc1ccc2c(c1)CCCC(c1ccc(Cl)cc1Cl)=C2c1ccc(C=C2CN(CCCF)C2)cc1", "note": "[Example 170, 8-(2,4-dichlorophenyl)-9-(4-((1-(3-fluoropropyl)azetidin-3-ylidene)methyl)phenyl)-6,7-dihydro-5H-benzo[7]annulen-3-ol]", "values": [
      {"measurement": "% Degradation At 0.3 μM", "value": 85, "unit": "%"},
      {"measurement": "DC50", "value": 200, "unit": "pM"}
    ]},
    {"smiles": "Cc1cccc(C2=C(c3ccc(C=C4CN(CCC(F)F)C4)cc3)c3ccc(C(=O)O)cc3CCC2)c1C(F)(F)F", "note": "[Example 116, 9-(4-((1-(3,3-difluoropropyl)azetidin-3-ylidene)methyl)phenyl)-8-(3-methyl-2-(trifluoromethyl)phenyl)-6,7-dihydro-5H-benzo[7]annulene-3-carboxylic acid]", "values": [
      {"measurement": "% Degradation At 0.3 μM", "value": 90, "unit": "%"},
      {"measurement": "DC50", "value": 700, "unit": "pM"}
    ]},
    {"smiles": "O=C(O)c1ccc2c(c1)CCCC(c1ccc(F)c(F)c1F)=C2c1ccc(C=C2CN(CCCF)C2)cc1", "note": "[Example 135, 9-(4-((1-(3-fluoropropyl)azetidin-3-ylidene)methyl)phenyl)-8-(2,3,4-trifluorophenyl)-6,7-dihydro-5H-benzo[7]annulene-3-carboxylic acid]", "values": [
      {"measurement": "% Degradation At 0.3 μM", "value": 96, "unit": "%"},
      {"measurement": "DC50", "value": 500, "unit": "pM"}
    ]}
  ]
}
